{"source": "patent US7144860B2", "about": "“Heart homing conjugates” (priority 1999, dated 2006)", "key": {"normal heart": {"test_system": "normal heart", "assay": "In vivo phage homing to normal heart (phage per gram heart / phage per gram brain)", "design": "species or system mice", "conditions": "for Homing to normal heart (in words) / Enrichment (relative enrichment compared with insertless phage): individual phage; for Homing to normal heart (in words): normal animals; for Enrichment (relative enrichment compared with insertless phage): Targeted tissue Normal Heart, n=6 or 7 animals; for Enrichment in normal heart as compared to brain: normal heart versus control brain tissue, phage expressing the peptide", "method": "Individual phage (5×10^9 TU) were injected intravenously and allowed to circulate for 5 minutes prior to perfusion of the vasculature and harvesting of the heart and brain. The number of phage recovered from the heart (per gram) was normalized by the number of phage recovered from the brain (per gram). Fd-tet was a phage without any additional peptide insert. […] The data shown are the logarithmic means and logarithmic standard errors of the multiple experiments.\nIn vivo panning was performed to identify phage that selectively home to normal coronary endothelium by injection of phage libraries and isolation of individual phage from the heart as follows. […] Both linear (X7 (SEQ ID NO: 1)) and cyclic (CX7C (SEQ ID NO: 13), CX9C (SEQ ID NO: 14), and CX11C (SEQ ID NO: 15)) libraries were used, where “C” indicates cysteine and “XN” indicates the given number of individually selected amino acids.\nLibraries were administered independently with the initial titer of the various libraries. In vivo phage selection was performed as described in Pasqualini and Ruoslahti, Nature 380:364–366 (1996), with a few modifications. In both normal and ischemic targeting, 2.5×10^8 transducing units of the initial phage libraries were injected intravenously into the jugular vein. After 5 minutes of phage circulation in vivo, the heart was arrested by intraventricular injection of a hyperkalemic (30 mM KCl), hypothermic solution of DMEM, and the vasculature cleared of blood by perfusion with 5–10 ml of hyperkalemic DMEM through a left ventricular cannula. After the heart and brain were harvested, homogenized and weighed, phage were rescued by infection with K91 Kan bacteria. For the second and third rounds of selection, 200 normal or 100 ischemic clones were picked from the previous round and individually grown to saturation. Cultures were then pooled, phage particles purified and 10^10 TU of a pool reinjected into similarly treated mice.\n(§1) All data were calculated as the ratio of the number of phage obtained per gram of heart tissue to the number of phage obtained per gram of brain tissue. Means, standard deviations, standard errors and parametric statistics were based on the assumption that this ratio is derived from a log-normal distribution."}, "[1]": {"test_system": "ischemic/reperfused myocardium", "assay": "In vivo phage homing to ischemia-reperfusion injured heart (phage per gram heart / phage per gram brain)", "design": "species or system mice", "conditions": "for Homing to ischemic/reperfused myocardium (in words) / Enrichment (relative enrichment compared with insertless phage): individual phage; for Homing to ischemic/reperfused myocardium (in words): ischemia-reperfusion injured animals; for Enrichment (relative enrichment compared with insertless phage): Targeted tissue Ischemic Heart", "method": "Individual phage obtained from screening in ischemic-reperfused hearts were injected at 5×10^9 TU intravenously into normal animals (open squares) or animals subject to 30 minutes myocardial ischemia by occlusion of the left anterior descending (LAD) coronary artery followed by 30 minutes reperfusion (closed circles). Phage were allowed to circulate for 5 minutes prior to perfusion of the vasculature and harvesting of the heart and brain. The number of phage recovered from the heart (per gram) was normalized by the number of phage recovered from the brain (per gram). […] The data shown are-the logarithmic means and logarithmic standard errors of the multiple experiments.\nThe number of phage recovered from the heart (per gram) was normalized by the number of phage recovered from the brain (per gram). The data shown are the logarithmic means and logarithmic standard errors for six to seven individual experiments.\nas §1\nIschemia-reperfusion was performed as follows using large male CD-1 mice weighing about 40 grams to facilitate the surgical protocol. Briefly, mice were anesthetized by an intramuscular injection of a mixture of xylazine (50 mg/kg) and ketamine (50 mg/kg) and subsequently intubated with an endotracheal tube and ventilated with a mixture of oxygen and room air using a Harvard Apparatus (0.05 ml; 100 bpm). The heart was exposed with a left thoracotomy, and a 7-0 suture was placed under the left anterior descending (LAD) coronary artery; the vessel was occluded by tying a knot over a small piece of polyethylene tubing (PE50). Ischemia was confirmed by cyanosis of the myocardium. After 30 minutes of occlusion, the knot was cut and blood flow restored to the region. Reperfusion was allowed to proceed for 30 minutes before phage targeting to allow for some vascular changes while limiting neutrophil recruitment to the area."}, "ischemic left ventricle": {"test_system": "ischemic left ventricle", "assay": "Phage recovered from injured left ventricle versus right ventricle and septum, ischemic hearts", "type": "in vivo, mice", "conditions": "animals after myocardial ischemia-reperfusion", "description": "The number of phage recovered from the left ventricle (g^−1) was normalized by the number of phage recovered from the right ventricle and septum (g^−1). The overall data shown are a logarithmic mean and logarithmic standard deviation for 47 normal and 35 ischemic hearts. The data for phage bearing SEQ ID NO: 10 (R13) are for six individual animals each.\nIschemia-reperfusion was performed as follows using large male CD-1 mice weighing about 40 grams to facilitate the surgical protocol. Briefly, mice were anesthetized by an intramuscular injection of a mixture of xylazine (50 mg/kg) and ketamine (50 mg/kg) and subsequently intubated with an endotracheal tube and ventilated with a mixture of oxygen and room air using a Harvard Apparatus (0.05 ml; 100 bpm). The heart was exposed with a left thoracotomy, and a 7-0 suture was placed under the left anterior descending (LAD) coronary artery; the vessel was occluded by tying a knot over a small piece of polyethylene tubing (PE50). Ischemia was confirmed by cyanosis of the myocardium. […]\nAs a further test of specificity for homing to ischemic heart, phage homing to the injured left ventricle was compared to homing to the normal right ventricle and septum. […] When the ratio of phage accumulation in the left ventricle only is calculated relative to accumulation in the brain, the preferential accumulation of […] […]"}}, "note": "“Also recorded” adds a separate entry of the source.", "data": [{"substance": "RPGRLNG (phage displayed) [SEQ ID NO: 8]", "values": [{"measurement": "Homing to normal heart (in words)", "setting": "normal heart", "result": "did not home to normal heart; also recorded: clearly did not target the normal myocardium"}, {"measurement": "Homing to ischemic/reperfused myocardium (in words)", "setting": "[1]", "result": "did not change"}]}, {"substance": "HGRVRPH (phage displayed) [SEQ ID NO: 3]", "values": [{"measurement": "Enrichment (relative enrichment compared with insertless phage)", "setting": "normal heart", "result": "~2", "unit": "fold"}, {"measurement": "Enrichment (relative enrichment compared with insertless phage)", "setting": "normal heart; listed as 3", "result": "2-fold"}, {"measurement": "Enrichment in normal heart as compared to brain", "setting": "normal heart", "result": "at least two-fold"}]}, {"substance": "GGGVFWQ (phage displayed) [SEQ ID NO: 2]", "values": [{"measurement": "Enrichment (relative enrichment compared with insertless phage)", "setting": "normal heart", "result": "~5", "unit": "fold"}, {"measurement": "Enrichment (relative enrichment compared with insertless phage)", "setting": "normal heart; listed as 2", "result": "5-fold"}, {"measurement": "Homing to normal heart (in words)", "setting": "normal heart", "result": "binds to normal heart; also recorded: strongly targeted the normal myocardium"}, {"measurement": "Homing to ischemic/reperfused myocardium (in words)", "setting": "[1]", "result": "remained enriched"}]}, {"substance": "CRSWNKADNRSC (phage displayed) [SEQ ID NO: 10]", "values": [{"measurement": "Homing to normal heart (in words)", "setting": "normal heart", "result": "did not target the normal heart"}, {"measurement": "Enrichment (relative enrichment compared with insertless phage)", "setting": "[1]", "result": 5, "unit": "fold"}, {"measurement": "Enrichment (relative enrichment compared with insertless phage)", "setting": "[1]; listed as 10", "result": "5-fold"}, {"measurement": "Phage accumulation in the left ventricle only relative to accumulation in the brain", "setting": "[1]; ischemia-reperfusion injured hearts, left ventricle only", "result": 7, "unit": "fold"}, {"measurement": "Preferential homing to the ischemic left ventricle versus right ventricle (in words)", "setting": "ischemic left ventricle", "result": "more phage were recovered from the injured left ventricle than the right ventricle; also recorded: preferentially homed to the ischemic left ventricle as compared to the uninjured right ventricle"}]}, {"substance": "VVLVTSS (phage displayed) [SEQ ID NO: 4]", "values": [{"measurement": "Enrichment (relative enrichment compared with insertless phage)", "setting": "normal heart", "result": "~2", "unit": "fold"}, {"measurement": "Enrichment (relative enrichment compared with insertless phage)", "setting": "normal heart; listed as 4", "result": "2-fold"}, {"measurement": "Enrichment in normal heart as compared to brain", "setting": "normal heart", "result": "at least two-fold"}]}, {"substance": "CLHRGNSC (phage displayed) [SEQ ID NO: 9]", "values": [{"measurement": "Enrichment (relative enrichment compared with insertless phage)", "setting": "normal heart", "result": "~2", "unit": "fold"}, {"measurement": "Enrichment (relative enrichment compared with insertless phage)", "setting": "normal heart; listed as 9", "result": "2-fold"}, {"measurement": "Enrichment in normal heart as compared to brain", "setting": "normal heart", "result": "at least two-fold"}, {"measurement": "Enrichment (relative enrichment compared with insertless phage)", "setting": "[1]", "result": "~2", "unit": "fold"}]}]}
